In patent US20180022780A1, “STABILIZATION ADRENOMEDULLIN DERIVATIVES AND USE THEREOF” (priority 2014, published 2018):
Bridge positions count the residues as written; N and C are the ends. Square brackets hold non-standard residues; d marks the D form. Peptide text beside a SMILES is read from it. Dab = NCC[C@H](N)C(=O)O; Dap = NC[C@H](N)C(=O)O

molecular target: T1, CLR fused to EYFP and RAMP2 fused to ECFP (Homo sapiens, UniProt O60895+Q16602); experiment: cAMP assay (CRE luciferase reporter, HEK-293 cells transiently co-transfected with CLR and RAMP2); assay type: cell-based; conditions: Table 2, cAMP assay; HEK-293, CLR/RAMP2, CRE luciferase, 3 h stimulation, normalized to [G^14]ADM(14-52)
T1 construct: EYFP; ECFP; expressed in transfected cells; host or cells: HEK-293 cells, transient co-transfection
T1 sequence (Q16602 23-461): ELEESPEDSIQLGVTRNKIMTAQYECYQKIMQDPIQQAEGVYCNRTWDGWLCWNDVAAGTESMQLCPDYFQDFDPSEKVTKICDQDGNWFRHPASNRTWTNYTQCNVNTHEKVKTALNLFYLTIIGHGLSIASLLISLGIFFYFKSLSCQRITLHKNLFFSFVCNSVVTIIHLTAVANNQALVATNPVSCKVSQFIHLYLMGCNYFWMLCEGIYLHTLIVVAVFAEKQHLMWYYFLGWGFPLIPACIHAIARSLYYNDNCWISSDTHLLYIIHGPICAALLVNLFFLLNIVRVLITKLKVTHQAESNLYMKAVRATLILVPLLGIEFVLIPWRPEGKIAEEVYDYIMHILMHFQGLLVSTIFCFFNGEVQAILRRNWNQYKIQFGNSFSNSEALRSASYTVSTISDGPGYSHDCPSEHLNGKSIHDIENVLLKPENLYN
T1 sequence (O60895 43-175): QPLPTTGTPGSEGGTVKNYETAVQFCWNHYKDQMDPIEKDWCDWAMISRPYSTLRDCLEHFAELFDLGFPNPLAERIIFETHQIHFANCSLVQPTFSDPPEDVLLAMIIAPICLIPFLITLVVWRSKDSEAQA
Protocol: HEK-293 cells (human embryonic kidney cells) were cultured in Ham's F-12/DMEM (1/1; v/v) containing 15% FCS under humidified atmosphere at 37° C. and 5% CO2 in 75 cm^2 cell culture flasks.
Cells were cultured in 75 cm^2 flasks to 70-80% confluency. 45 μl Metafectene® Pro was diluted in 900 μl Ham's F-12/DMEM (1/1; v/v) and incubated for 20 min at room temperature. 9000 ng plasmid containing DNA of CLR fused to EYFP and 3000 ng plasmid containing DNA of RAMP2 fused to ECFP were dissolved in 900 μl Ham's F-12/DMEM (1/1; v/v). The plasmid solution was mixed with the Metafectene® Pro solution and incubated for 25 min at room temperature. Medium was removed from the cells and replaced by 6 ml Ham's F-12/DMEM (1/1; v/v) containing 15% FCS. After addition of transfection solution the cells were incubated for 3 h under humidified atmosphere at 37° C. and 5% CO2.
For the second transfection 45 μl Metafectene® Pro was diluted in 900 μl Ham's F-12/DMEM (1/1; v/v) and incubated for 20 min at room temperature. 12000 ng of pGL4.29[luc2P/CRE/Hygro] plasmid containing DNA for the luciferase reporter gene luc2P (with CRE promotor region) were dissolved in 900 μl Ham's F-12/DMEM (1/1; v/v). The plasmid solution was mixed with the Metafectene® Pro solution and incubated for 25 min at room temperature. Medium was removed from the cells and replaced by 6 ml Ham's F-12/DMEM (1/1; v/v) containing 15% FCS. After addition of transfection solution the cells were incubated under humidified atmosphere at 37° C. and 5% CO2 over night.
For the coating of 96-well-plates 50 μl of a Poly-D-Lysine solution (1 ml stock solution of Poly-D-Lysin-hydrobromid/10 ml DPBS) were pipetted in each well and incubated for 40 min. After removal of the Poly-D-Lysine each well was washed with 50 μl DPBS. Transiently transfected cells were detached from the cell culture flask by removal of the medium, twofold washing with 5 m1 DPBS and resuspending in 13 ml Ham's F-12/DMEM (1/1; v/v) containing 15% FCS. 90000 to 120000 cells in 150 μl Ham's F-12/DMEM (1/1; v/v) containing 15% FCS were seeded per well and the plates were incubated under humidified atmosphere at 37° C. and 5% CO2 over night.
For each ligand a serial dilution giving eight different concentrations was prepared using Ham's F-12/DMEM (1/1; v/v). Before stimulation the medium on the cells was replaced by 100 μl Ham's F-12/DMEM (1/1; v/v) and the plates were incubated for 1 h under humidified atmosphere at 37° C. and 5% CO2. For stimulation the medium was removed again and the cells were incubated for 3 h in 80 μl of ligand-solution under humidified atmosphere at 37° C. and 5% CO2. In addition 80 μl of a 5 μM forskolin solution (in Ham's F-12/DMEM (1/1; v/v)) was used as a positive control and 80 μl of Ham's F-12/DMEM (1/1; v/v) as a negative control. Each concentration and the controls were tested as triplicates.
After 3 h of stimulation, the solutions were removed and the cells were washed with 50 μl of Ham's F-12/DMEM (1/1; v/v) per well. After 10 min incubation in 30 μl of Ham's F-12/DMEM (1/1; v/v) at room temperature, 30 μl of luciferase-solution (ONE-Glo™ Luciferase Assay System) was added and the luminescence was directly measured using an Infinite M200 (Tecan).
Data analysis of the luminescence measurement was carried out with GraphPad Prism 5. Therefore the measured luminescence values of each plate were first corrected on the base of the respective average of forskolin stimulation. Afterwards they were normalized to [G^14]ADM(14-52) which was used as standard peptide in every assay. After correction and normalization data was analysed using non-linear regression giving dose-response curves for each tested ligand.

EC50 [nM] | Compound
31 | CC[C@H](C)[C@H](NC(=O)[C@H](CCC(N)=O)NC(=O)[C@H](Cc1c[nH]cn1)NC(=O)[C@H](C)NC(=O)[C@H](CC(C)C)NC(=O)[C@H](CCCCN)NC(=O)[C@H](CCC(N)=O)NC(=O)[C@@H](NC(=O)[C@@H](NC(=O)[C@@H]1CCCCNC(=O)CC[C@H](NC(=O)CNC(=O)CN)C(=O)N[C@@H](CCCNC(=N)N)C(=O)N[C@@H](Cc2ccccc2)C(=O)NCC(=O)N[C@@H]([C@@H](C)O)C(=O)N1)[C@@H](C)O)C(C)C)C(=O)N[C@@H](Cc1ccc(O)cc1)C(=O)N[C@@H](CCC(N)=O)C(=O)N[C@@H](Cc1ccccc1)C(=O)N[C@H](C(=O)N[C@@H](CC(=O)O)C(=O)N[C@@H](CCCCN)C(=O)N[C@@H](CC(=O)O)C(=O)N[C@@H](CCCCN)C(=O)N[C@@H](CC(=O)O)C(=O)N[C@@H](CC(N)=O)C(=O)N[C@H](C(=O)N[C@@H](C)C(=O)N1CCC[C@H]1C(=O)N[C@@H](CCCNC(=N)N)C(=O)N[C@@H](CO)C(=O)N[C@@H](CCCCN)C(=O)N[C@H](C(=O)N[C@@H](CO)C(=O)N1CCC[C@H]1C(=O)N[C@@H](CCC(N)=O)C(=O)NCC(=O)N[C@@H](Cc1ccc(O)cc1)C(N)=O)[C@@H](C)CC)C(C)C)[C@@H](C)O [Example 1, ((2S,5S,11S,14S,23S)-23-(2-(2-aminoacetamido)acetamido)-5-benzyl-2-(3-guanidinopropyl)-11-((R)-1-hydroxyethyl)-3,6,9,12,20,24-hexaoxo-1,4,7,10,13,19-hexaazacyclotetracosane-14-carbonyl)-L-threonyl-ADM(22-52)] (H-GGERFGTKTVQKLAHQIYQFTDKDKDNVAPRSKISPQGY-NH2; lactam 3-8)
67 | CC[C@H](C)[C@H](NC(=O)[C@H](CCC(N)=O)NC(=O)[C@H](Cc1c[nH]cn1)NC(=O)[C@H](C)NC(=O)[C@H](CC(C)C)NC(=O)[C@H](CCCCN)NC(=O)[C@H](CCC(N)=O)NC(=O)[C@@H](NC(=O)[C@@H](NC(=O)[C@@H]1CC(=O)NC[C@H](NC(=O)CNC(=O)CN)C(=O)N[C@@H](CCCNC(=N)N)C(=O)N[C@@H](Cc2ccccc2)C(=O)NCC(=O)N[C@@H]([C@@H](C)O)C(=O)N1)[C@@H](C)O)C(C)C)C(=O)N[C@@H](Cc1ccc(O)cc1)C(=O)N[C@@H](CCC(N)=O)C(=O)N[C@@H](Cc1ccccc1)C(=O)N[C@H](C(=O)N[C@@H](CC(=O)O)C(=O)N[C@@H](CCCCN)C(=O)N[C@@H](CC(=O)O)C(=O)N[C@@H](CCCCN)C(=O)N[C@@H](CC(=O)O)C(=O)N[C@@H](CC(N)=O)C(=O)N[C@H](C(=O)N[C@@H](C)C(=O)N1CCC[C@H]1C(=O)N[C@@H](CCCNC(=N)N)C(=O)N[C@@H](CO)C(=O)N[C@@H](CCCCN)C(=O)N[C@H](C(=O)N[C@@H](CO)C(=O)N1CCC[C@H]1C(=O)N[C@@H](CCC(N)=O)C(=O)NCC(=O)N[C@@H](Cc1ccc(O)cc1)C(N)=O)[C@@H](C)CC)C(C)C)[C@@H](C)O [Example 3, ((2S,5S,11S,14S,19S)-19-(2-(2-aminoacetamido)acetamido)-5-benzyl-2-(3-guanidinopropyl)-11-((R)-1-hydroxyethyl)-3,6,9,12,16,20-hexaoxo-1,4,7,10,13,17-hexaazacycloicosane-14-carbonyl)-L-threonyl-ADM(22-52)] (H-GG[Dap]RFGTDTVQKLAHQIYQFTDKDKDNVAPRSKISPQGY-NH2; lactam 3-8)
21 | CC[C@H](C)[C@H](NC(=O)[C@H](CCC(N)=O)NC(=O)[C@H](Cc1c[nH]cn1)NC(=O)[C@H](C)NC(=O)[C@H](CC(C)C)NC(=O)[C@H](CCCCN)NC(=O)[C@H](CCC(N)=O)NC(=O)[C@@H](NC(=O)[C@@H](NC(=O)[C@@H]1CCNC(=O)C[C@H](NC(=O)CNC(=O)CN)C(=O)N[C@@H](CCCNC(=N)N)C(=O)N[C@@H](Cc2ccccc2)C(=O)NCC(=O)N[C@@H]([C@@H](C)O)C(=O)N1)[C@@H](C)O)C(C)C)C(=O)N[C@@H](Cc1ccc(O)cc1)C(=O)N[C@@H](CCC(N)=O)C(=O)N[C@@H](Cc1ccccc1)C(=O)N[C@H](C(=O)N[C@@H](CC(=O)O)C(=O)N[C@@H](CCCCN)C(=O)N[C@@H](CC(=O)O)C(=O)N[C@@H](CCCCN)C(=O)N[C@@H](CC(=O)O)C(=O)N[C@@H](CC(N)=O)C(=O)N[C@H](C(=O)N[C@@H](C)C(=O)N1CCC[C@H]1C(=O)N[C@@H](CCCNC(=N)N)C(=O)N[C@@H](CO)C(=O)N[C@@H](CCCCN)C(=O)N[C@H](C(=O)N[C@@H](CO)C(=O)N1CCC[C@H]1C(=O)N[C@@H](CCC(N)=O)C(=O)NCC(=O)N[C@@H](Cc1ccc(O)cc1)C(N)=O)[C@@H](C)CC)C(C)C)[C@@H](C)O [Example 4, ((2S,5S,11S,14S,20S)-20-(2-(2-aminoacetamido)acetamido)-5-benzyl-2-(3-guanidinopropyl)-11-((R)-1-hydroxyethyl)-3,6,9,12,18,21-hexaoxo-1,4,7,10,13,17-hexaazacyclohenicosane-14-carbonyl)-L-threonyl-ADM(22-52)] (H-GGDRFGT[Dab]TVQKLAHQIYQFTDKDKDNVAPRSKISPQGY-NH2; lactam 3-8)
2.9 | CC[C@H](C)[C@H](NC(=O)[C@H](CCC(N)=O)NC(=O)[C@H](Cc1c[nH]cn1)NC(=O)[C@H](C)NC(=O)[C@H](CC(C)C)NC(=O)[C@H](CCCCN)NC(=O)[C@H](CCC(N)=O)NC(=O)[C@@H](NC(=O)[C@@H](NC(=O)[C@@H]1CCC(=O)NC[C@H](NC(=O)CNC(=O)CN)C(=O)N[C@@H](CCCNC(=N)N)C(=O)N[C@@H](Cc2ccccc2)C(=O)NCC(=O)N[C@@H]([C@@H](C)O)C(=O)N1)[C@@H](C)O)C(C)C)C(=O)N[C@@H](Cc1ccc(O)cc1)C(=O)N[C@@H](CCC(N)=O)C(=O)N[C@@H](Cc1ccccc1)C(=O)N[C@H](C(=O)N[C@@H](CC(=O)O)C(=O)N[C@@H](CCCCN)C(=O)N[C@@H](CC(=O)O)C(=O)N[C@@H](CCCCN)C(=O)N[C@@H](CC(=O)O)C(=O)N[C@@H](CC(N)=O)C(=O)N[C@H](C(=O)N[C@@H](C)C(=O)N1CCC[C@H]1C(=O)N[C@@H](CCCNC(=N)N)C(=O)N[C@@H](CO)C(=O)N[C@@H](CCCCN)C(=O)N[C@H](C(=O)N[C@@H](CO)C(=O)N1CCC[C@H]1C(=O)N[C@@H](CCC(N)=O)C(=O)NCC(=O)N[C@@H](Cc1ccc(O)cc1)C(N)=O)[C@@H](C)CC)C(C)C)[C@@H](C)O [Example 7, ((3S,9S,12S,15S,21S)-15-(2-(2-aminoacetamido)acetamido)-9-benzyl-12-(3-guanidinopropyl)-3-((R)-1-hydroxyethyl)-2,5,8,11,14,18-hexaoxo-1,4,7,10,13,17-hexaazacyclohenicosane-21-carbonyl)-L-threonyl-ADM(22-52)] (H-GG[Dap]RFGTETVQKLAHQIYQFTDKDKDNVAPRSKISPQGY-NH2; lactam 3-8)
